Results as given in US20050288347A1, “Certain triazole-based compounds, compositions, and uses thereof” (priority 2004, published 2005).
Entries after “also recorded” stand apart in the source; their conditions may differ.

Tested on: protein kinase
Test: HTS ATP-utilizing enzyme assay, off-chip mobility-shift format (Caliper HTS 250)
Format: biochemical, human
Conditions: test compound 10 μM; active = activity greater than three-sigma from the mean of the predominately inactive population for that enzyme
In short: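 Kinase reactions ran 2.5 h at 20 to 22 °C with test compound at 10 μM, in a HEPES pH 7.5 master buffer containing Triton X-100 and BSA. Peptide substrate and phosphorylated product separated by mobility shift; inhibition normalized to DMSO (0%) and EDTA (100%) controls, with three-sigma thresholds for hits.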

| SMILES | protein kinase against which the compound exhibits inhibitory activity (Table 3) |
| --- | --- |
| C=CCSc1nnc(Cn2cnc3ccccc32)n1C | HCK |
| CSCCc1nnc(SCC(O)C(F)(F)F)[nH]1 (stereo not shown) | GSK3-α |
| OC(CSc1nnc(-c2cccc(C(F)(F)F)c2)[nH]1)C(F)(F)F (stereo not shown) | AURORA-A; also recorded: FLT-3; also recorded: GSK3-β |
| O=C1c2ccccc2C(=O)N1CCSc1nnc(-c2cccc(C(F)(F)F)c2)[nH]1 | GSK3-β and PKA and GSK3-α |
| COc1ccccc1-n1c(SCC(=O)N2CCCC2)nnc1-c1ccccc1O | PRAK |
| CNC(=O)CSc1nnc(-c2ccccc2O)n1-c1ccccc1OC | AURORA-A |
| NC(=O)CSc1nnc(-c2ccc(OC(F)(F)F)cc2)[nH]1 | AURORA-A; also recorded: GSK3-β; also recorded: DYRK2 |
| COc1ccc(-n2c(SCc3nnc(-c4ccccc4)o3)nnc2-c2ccncc2)cc1 | GSK3-α |
| Cc1cc(C)nc(SCc2nnc(SCc3ccccc3)n2Cc2ccco2)n1 | CDK1 |
| Cc1ccc(-c2nnc(CSc3nnc(COc4ccccc4)n3-c3ccc(C)cc3)o2)cc1 | GSK3-α |
| Cc1ccc(-n2c(SCc3nnc(-c4ccccc4)o3)nnc2-c2ccncc2)cc1 | GSK3-β; also recorded: GSK3-α |
| COc1ccc(CCn2c(CCC3CCCC3)nnc2SCC=C(C)C)cc1OC | GSK3-β; also recorded: GSK3-α |
| CCOCCSc1nnc(-c2ccc([N+](=O)[O-])cc2)[nH]1 | FLT-3; also recorded: AURORA-A; also recorded: GSK3-α |
| CCOCCSc1nnc(-c2cccc(C)c2)[nH]1 | AURORA-A; also recorded: FLT-3; also recorded: GSK3-β |
| COc1ccccc1-n1c(SCCC(=O)O)nnc1-c1cccnc1 | AURORA-A |
| CCc1ccc(OCc2nnc(SCCC(=O)O)n2CC)cc1 | MSK1 |
| CCn1c(COc2cccc3ccccc23)nnc1SCCC(=O)O | AURORA-A |
| CN1C=NN(c2cc3ccccc3cc2O)C1SCc1nnc(-c2ccccc2)o1 (stereo not shown) | GSK3-β; also recorded: GSK3-α |
| OC(CSc1nnc(-c2ccc(Cl)c(Cl)c2)[nH]1)C(F)(F)F (stereo not shown) | AURORA-A; also recorded: FLT-3; also recorded: GSK3-β |
| OCC(O)CSc1nnc(-c2ccc(OC(F)(F)F)cc2)[nH]1 (stereo not shown) | AURORA-A; also recorded: FLT-3; also recorded: DYRK2 |
| CCn1c(COc2ccc(Br)cc2)nnc1SCCC(=O)O | AURORA-A |

| SMILES | protein kinase against which the compound exhibits inhibitory activity (Table 3) |
| --- | --- |
| Cc1cc(OCc2nnc(SCCC(=O)O)n2C)ccc1Cl | AURORA-A |
| Cc1cc(C)nc(SCc2nnc(SCCC(=O)O)n2-c2ccccc2)n1 | CHEK2 |
| CCCCSc1nnc(-c2cccnc2)[nH]1 | AURORA-A; also recorded: FLT-3; also recorded: c-TAK1 |
| COc1ccccc1-n1c(SCCC(=O)O)nnc1C1CCCCC1 | GSK3-α |
| CCn1c(COc2ccc(Cl)c(C)c2)nnc1SC(C)C | AKT1 |
| CC(C)=CCSc1nnc(CCC2CCCC2)n1CCCN1CCOCC1 | GSK3-α |
| Cc1ccc(-c2nnc(CSc3nnc(-c4ccc(S(=O)(=O)N5CCOCC5)cc4)n3C)o2)cc1 | GSK3-β; also recorded: GSK3-α |
| CCc1nnc(SCC=C(C)C)n1Cc1ccc2c(c1)OCO2 | GSK3-β; also recorded: GSK3-α |
| O=C(NCCSc1nnc(-c2cccc(C(F)(F)F)c2)[nH]1)c1ccccc1 | GSK3-β; also recorded: GSK3-α; also recorded: CHEK2 |
| COc1ccccc1-n1c(SCC(=O)Nc2cc(NC(=O)c3ccco3)ccc2C)nnc1-c1ccccc1O | AURORA-A |
| COc1ccccc1-n1c(SCC(=O)Nc2cccc(NC(=O)c3ccco3)c2)nnc1-c1ccccc1O | AURORA-A |
| CC(C)Sc1nnc(-c2ccc(NS(C)(=O)=O)cc2)n1C | CDK2-cyclinA |
| CCOc1ccc(Nc2nc(Cc3nnc(SCc4cccnc4)n3CC)cs2)cc1 | CHEK2; also recorded: AURORA-A |
| CN(C)CCCSc1nnc(C2CCCC2)[nH]1 | c-TAK1 |
| OCC(O)CSc1nnc(CCc2ccccc2)[nH]1 (stereo not shown) | GSK3-α |
| COc1ccc(NCc2nnc(SCc3ccccc3)n2-c2ccc(OC)cc2)cc1 | PDGFRR-α and FLT-3 and FYN |
| CN(C)CCCSc1nnc(-c2cccc(C(F)(F)F)c2)[nH]1 | CHEK2; also recorded: c-TAK1; also recorded: GSK3-β |
| CN(C)CCCSc1nnc(-c2ccc(OC(F)(F)F)cc2)[nH]1 | c-TAK1; also recorded: AURORA-A; also recorded: CHEK2 |
| COc1ccccc1-n1c(SCCC(=O)OCc2ccccc2)nnc1C1CCCCC1 | AURORA-A |
| CCOC(=O)CCCSc1nnc(-c2ccc3[nH]c(C)c(C)c3c2)n1CC | FLT-3 |

Continued, values first:

| protein kinase against which the compound exhibits inhibitory activity (Table 3) | SMILES |
| --- | --- |
| KIT and AURORA-A and PKA | CCCN(CCC)C(=O)CSc1nnc(-c2ccccc2O)n1-c1ccccc1OC |
| AKT1 | O=c1[nH]c(CSc2nnc(-c3ccccc3O)n2CCc2ccccc2)nc2ccccc12 |
| GSK3-α; also recorded: CHEK2 | COc1ccc(-c2nnc(SCc3nnc(-c4ccccc4)o3)n2C)cc1OC |
| MAPKALPK-2 and AKT1 | COc1ccc(-n2c(CNc3ccccc3Cl)nnc2SCc2ccc(Cl)cc2)cc1 |
| GSK3-β; also recorded: GSK3-α | O=C(O)CCSc1nnc(-c2ccc(O)cc2)n1-c1cccc(Cl)c1 |
| CDK2-cyclinE | CCn1c(COc2ccccc2OC)nnc1SCc1ccc(Cl)cc1 |
| CDK2-cyclinE | CCn1c(COc2ccc(OC)cc2)nnc1SCc1ccc(Cl)cc1 |
| CDK1 | COCCCn1c(SCc2ccccc2Cl)nnc1-c1ccc(C(C)(C)C)cc1 |
| DAPK1 | COCCCn1c(SCc2ccc(Cl)cc2)nnc1-c1ccc(C(C)(C)C)cc1 |
| c-TAK1 | CC(C)=CCSc1nnc(Cc2ccccc2)n1Cc1ccc(Cl)c(Cl)c1 |
| MSK2 and MSK1 and AKT3 | Clc1ccc(CSc2nnc(-c3ccncc3)n2Cc2ccco2)c(Cl)c1 |
| MSK1 and MSK2 and AKT3 | Clc1ccc(CSc2nnc(-c3ccncc3)n2Cc2ccco2)cc1 |
| MAPKAPK-2 | CC(C)(C)c1ccc(CSc2nnc(-c3ccncc3)n2Cc2ccco2)cc1 |
| GSK3-α; also recorded: GSK3-β | O=C(O)c1ccc(CSc2nnc(-c3ccncc3)n2Cc2ccco2)cc1 |
| GSK3a | Cn1c(COc2ccccc2)nnc1SCc1cc(=O)[nH]c2ccccc12 |
| SYK | Cc1ccc(-n2c(SCc3ccc(C(=O)O)cc3)nnc2-c2ccc(Cl)cc2)cc1 |
| FYN | COc1ccc(NCc2nnc(SCc3ccc([N+](=O)[O-])cc3)n2C)cc1 |
| PDGFRR-α and FLT-3 and FYN | COc1ccc(N)cc1Cc1nnc(SCc2c(Cl)cccc2Cl)n1-c1ccccc1 |
| PDGFRR-α and FYN and FLT-3 | CCn1c(CNc2ccc(OC)cc2)nnc1SCc1c(F)cccc1Cl |
| AURORA-A; also recorded: CDK2-cyclinE | CCn1c(CNc2ccc(C)cc2)nnc1SCc1ccc(Cl)c(Cl)c1 |
| PDGFRR-α and FYN( | CCn1c(CNc2ccc(OC)cc2)nnc1SCc1ccc(Cl)cc1 |
| PDGFRR-α and MSK2 | Cc1cccc(NCc2nnc(SCc3ccc(Cl)cc3)n2-c2ccccc2)c1 |
| PDGFRR-α and FYN | COc1ccc(NCc2nnc(SCc3ccc(Cl)cc3)n2-c2ccccc2)cc1 |
| FLT-3; also recorded: PDGFRR-α | COc1ccc(-n2c(CNc3ccc(C)cc3)nnc2SCc2ccccc2)cc1 |
| INSR and KIT and SYK | CCCCNC(=O)CSc1nnc(-c2ccccc2O)n1-c1ccccc1OC |
| GSK3-α | CCN(CC)S(=O)(=O)c1ccc(-c2nnc(SCc3nnc(-c4ccccc4)o3)n2CC)cc1 |
